Data as given in ChEMBL document CHEMBL1124706, “Synthesis, antiretrovirus effects, and phosphorylation kinetics of 3'-isocyano-3'-deoxythymidine and 3'-isocyano-2',3'-dideoxyuridine” (1990).

Experiments:
Assay type in all cases: functional
MT4 [1] = assay: Cytopathogenicity against HIV-2 induced replication in MT-4 cells was determined; conditions: Homo sapiens, read-out: ED50 (the source's name)
[2] = Ratio of CD50 value to that of ED50 value was determined and expressed as selectivity index
MT4 [3] = assay: Cytopathogenicity against HIV-1 induced, replication in MT-4 cells was determined; conditions: Homo sapiens, read-out: ED50 (the source's name)
MT4 [4] = assay: Cytotoxic dose to reduce the viability of MT-4 cells by 50 % was determined; conditions: Homo sapiens, read-out: CD50 (the source's name)

| SMILES | EC50 (MT4 [1]) | Selectivity index [2] | EC50 (MT4 [3]) | CC50 (MT4 [4]) |
| --- | --- | --- | --- | --- |
| [C-]#[N+]C1CC(n2ccc(=O)[nH]c2=O)OC1CO (configuration not stated) | > 500000 nM | < 1 | > 500000 nM | ≥ 500000 nM |
| [C-]#[N+]C1CC(n2cc(C)c(=O)[nH]c2=O)OC1CO (configuration not stated) | > 800 nM | < 1.1 | > 800 nM | 880 nM |
| Cc1cn([C@H]2C[C@H](N=[N+]=[N-])[C@@H](CO)O2)c(=O)[nH]c1=O [ZIDOVUDINE] | 4 nM | 1580 | 4 nM | 6300 nM |
